Measurements published in patent US20100311748A1, “HETEROCYCLIC AMIDES USEFUL FOR THE TREATMENT OF CANCER AND PSORIASIS” (ASTRAZENECA AB, priority 2007, published 2010).

Each molecule was assayed on Hedgehog pathway (assay: Hedgehog Pathway Cellular Differentiation Assay (alkaline phosphatase production in C3H10T1/2 cells with Shh ligand)). Details: Mus musculus, C3H 10T1/2, 3 μM compound, Shh ligand conditioned media, 72 h, alkaline phosphatase.
Assay type: cell-based
Description: Hedgehog Pathway Cellular Differentiation Assay The ability of compounds of the invention to inhibit the Hedgehog pathway can be determined by the following cell differentiation assay. C3H10T1/2 cells were plated into 384 well plates at a concentration of 5000 cells/well in DMEM/10% FBS. The following day the media was changed to 20% conditioned media (low serum media DMEM/2% FBS+Shh ligand). Compounds were solubilized in 100% DMSO to a concentration of 10 mM and then serially diluted three fold in 100% DMSO. The highest concentration in the cell plate was 30 μM and the lowest was 3 nM. The compounds were then added to the cells. Cell plates were incubated with the compound for 72 h and then assayed for alkaline phosphatase production using pNp as a substrate. Briefly, after 72 h of incubation, the media was aspirated from the cells and washed with 30 μl of PBS. PBS was aspirated off the cells and 15 μl of 1×RIPA cell lysis buffer is added on to the cells. The cell plates are then incubated at −80° C. for 30 minutes to insure proper cell lysis. The plates were then thawed back to RT. The substrate solution containing pNp at 1 mg/mL in diethanolamine buffer pH 9.8 was then added onto the lysed cells. The plates were incubated at 30° C. for color development and read at an absorbance of 405 nm. The percent inhibition and IC50 value was then calculated from the absorbance data using standard procedures.

First: Cc1ccc(-c2ncc[nH]2)cc1NC(=O)c1ccc(OCc2ccccc2)cc1 [Example 58, N-(5-(1H-imidazol-2-yl)-2-methylphenyl)-4-(benzyloxy)benzamide]
Second: Cc1ccc(-c2ncc[nH]2)cc1NC(=O)c1ccc(OCc2ccc(F)cc2)cc1 [Example 59, 4-[(4-Fluorophenyl)methoxy]-N-[5-(1H-imidazol-2-yl)-2-methylphenyl]benzamide]
The inhibition at 3 µM of the first is higher: 86.2% for the first, 82.5% for the second.

First: Cc1ccc(-c2ncc[nH]2)cc1NC(=O)c1ccc(OCc2ccc(S(C)(=O)=O)cc2)cc1 [Example 60, N-[5-(1H-imidazol-2-yl)-2-methylphenyl]-4-{[4-(methylsulfonyl)benzyl]oxy}benzamide]
Second: Cc1ccc(-c2ncc[nH]2)cc1NC(=O)c1ccc(OCc2ccc(CO)cc2)cc1 [Example 62, 4-{[4-(hydroxymethyl)benzyl]oxy}-N-[5-(1H-imidazol-2-yl)-2-methylphenyl]benzamide]
The inhibition at 3 µM of the first is higher: 79.7% for the first, 76.9% for the second.

Going from `Cc1ccc(-c2ncc[nH]2)cc1NC(=O)c1ccc(OCc2cccc(C#N)c2)cc1` [Example 61, 4-[(3-cyanobenzyl)oxy]-N-[5-(1H-imidazol-2-yl)-2-methylphenyl]benzamide] to `COc1ccccc1COc1ccc(C(=O)Nc2cc(-c3ncc[nH]3)ccc2C)cc1` [Example 63, N-[5-(1H-imidazol-2-yl)-2-methylphenyl]-4-[(2-methoxybenzyl)oxy]benzamide], the inhibition at 3 µM falls from 82.1% to 79.8%.

Compared with `Cc1ccc(-c2ncc[nH]2)cc1NC(=O)c1ccc(OCc2ccccc2C(F)(F)F)cc1` [Example 64, N-[5-(1H-imidazol-2-yl)-2-methylphenyl]-4-{[2-(trifluoromethyl)benzyl]oxy}benzamide], `COc1ccnc(COc2ccc(C(=O)Nc3cc(-c4ncc[nH]4)ccc3C)cc2)c1` [Example 92, N-[5-(1H-imidazol-2-yl)-2-methylphenyl]-4-[(4-methoxypyridin-2-yl)methoxy]benzamide] is lower in inhibition at 3 µM: 79.6% for the first, 76% for the second.

Compared with `Cc1ccc(-c2ccccc2)cc1NC(=O)c1ccc(OCc2ccccn2)cc1` [Example 65, N-(2-methyl-5-phenyl-phenyl)-4-(pyridin-2-ylmethoxy)benzamide], `Cc1ccc(-c2nc(-c3ccccc3)c[nH]2)cc1NC(=O)c1ccc(OCc2ccccn2)cc1` [Example 81, N-[2-methyl-5-(4-phenyl-1H-imidazol-2-yl)phenyl]-4-(pyridin-2-ylmethoxy)benzamide] is higher in inhibition at 3 µM: 50% for the first, 78.8% for the second.

Compared with `Cc1cn(C)c(-c2ccc(C)c(NC(=O)c3ccc(OCc4cccc(OCCN5CCOCC5)c4)cc3)c2)n1` [Example 66, N-[5-(1,4-dimethyl-1H-imidazol-2-yl)-2-methylphenyl]-4-{[3-(2-morpholin-4-ylethoxy)benzyl]oxy}benzamide], `Cc1ccc(-c2ncc[nH]2)cc1NC(=O)c1ccc(OCc2cc(N3CCOCC3)ccn2)cc1` [Example 89, N-[5-(1H-imidazol-2-yl)-2-methylphenyl]-4-[(4-morpholin-4-ylpyridin-2-yl)methoxy]benzamide] is higher in inhibition at 3 µM: 69.6% for the first, 72.7% for the second.

Compared with `Cc1cc(C)c(-c2ncc[nH]2)cc1NC(=O)c1ccc(OCc2ccccn2)cc1` [Example 67, N-[5-(1H-imidazol-2-yl)-2,4-dimethylphenyl]-4-(pyridin-2-ylmethoxy)benzamide], `Cc1cc(Cl)c(-c2ncc[nH]2)cc1NC(=O)c1ccc(OCc2ccccn2)cc1` [Example 76, N-[4-chloro-5-(1H-imidazol-2-yl)-2-methylphenyl]-4-(pyridin-2-ylmethoxy)benzamide] is higher in inhibition at 3 µM: 77.1% for the first, 77.6% for the second.

Going from `Cc1cc(C)c(-c2nc3ccccc3[nH]2)cc1NC(=O)c1ccc(OCc2ccccn2)cc1` [Example 68, N-[5-(1H-benzimidazol-2-yl)-2,4-dimethylphenyl]-4-(pyridin-2-ylmethoxy)benzamide] to `Cc1cc(C)c(-c2cn(C)cn2)cc1NC(=O)c1ccc(OCc2ccccn2)cc1` [Example 71, N-[2,4-dimethyl-5-(1-methyl-1H-imidazol-4-yl)phenyl]-4-(pyridin-2-ylmethoxy)benzamide], the inhibition at 3 µM rises from 83.3% to 84.9%.

Compared with `Cc1cc(C)c(-c2ncc(C)n2C)cc1NC(=O)c1ccc(OCc2ccccn2)cc1` [Example 69, N-[5-(1,5-dimethyl-1H-imidazol-2-yl)-2,4-dimethylphenyl]-4-(pyridin-2-ylmethoxy)benzamide], `Cc1cc(C)c(-c2cnc(C)n2C)cc1NC(=O)c1ccc(OCc2ccccn2)cc1` [Example 70, N-[5-(1,2-dimethyl-1H-imidazol-5-yl)-2,4-dimethylphenyl]-4-(pyridin-2-ylmethoxy)benzamide] is lower in inhibition at 3 µM: 83.9% for the first, 78.1% for the second.

Going from `Cc1cc(C)c(-c2cn(C)c(C)n2)cc1NC(=O)c1ccc(OCc2ccccn2)cc1` [Example 73, N-(5-(1,2-dimethyl-1H-imidazol-4-yl)-2,4-dimethylphenyl)-4-(pyridin-2-ylmethoxy)benzamide] to `Cc1cc(Cl)c(-c2cn(C)c(C)n2)cc1NC(=O)c1ccc(OCc2ccccn2)cc1` [Example 77, N-[4-chloro-5-(1,2-dimethyl-1H-imidazol-4-yl)-2-methylphenyl]-4-(pyridin-2-ylmethoxy)benzamide], the inhibition at 3 µM rises from 85.8% to 86.1%.

First: Cc1cc(Cl)c(-c2nccn2C)cc1NC(=O)c1ccc(OCc2ccccn2)cc1 [Example 74, N-[4-chloro-2-methyl-5-(1-methyl-1H-imidazol-2-yl)phenyl]-4-(pyridin-2-ylmethoxy)benzamide]
Second: Cc1cc(Cl)c(-c2cn(C)cn2)cc1NC(=O)c1ccc(OCc2ccccn2)cc1 [Example 75, N-[4-chloro-2-methyl-5-(1-methyl-1H-imidazol-4-yl)phenyl]-4-(pyridin-2-ylmethoxy)benzamide]
The inhibition at 3 µM of the first is lower: 76.2% for the first, 77.8% for the second.

First: Cc1ccc(-c2ncn(C)c2CO)cc1NC(=O)c1ccc(OCc2ccccn2)cc1 [Example 78, N-{5-[5-(hydroxymethyl)-1-methyl-1H-imidazol-4-yl]-2-methylphenyl}-4-(pyridin-2-ylmethoxy)benzamide]
Second: CNCc1c(-c2ccc(C)c(NC(=O)c3ccc(OCc4ccccn4)cc3)c2)ncn1C [Example 80, N-(2-methyl-5-{1-methyl-5-[(methylamino)methyl]-1H-imidazol-4-yl}phenyl)-4-(pyridin-2-ylmethoxy)benzamide]
The inhibition at 3 µM of the first is higher: 75.1% for the first, 57.1% for the second.

Compared with `Cc1cc(C)c(-c2ncn(C)c2CO)cc1NC(=O)c1ccc(OCc2ccccn2)cc1` [Example 79, N-(5-(5-(hydroxymethyl)-1-methyl-1H-imidazol-4-yl)-2,4-dimethylphenyl)-4-(pyridin-2-ylmethoxy)benzamide], `Cc1ccc(-c2nc(CO)c[nH]2)cc1NC(=O)c1ccc(OCc2ccccn2)cc1` [Example 88, N-{5-[4-(hydroxymethyl)-1H-imidazol-2-yl]-2-methylphenyl}-4-(pyridin-2-ylmethoxy)benzamide] is lower in inhibition at 3 µM: 85.9% for the first, 84.7% for the second.

First: Cc1ccc(-c2nc(-c3nccs3)c[nH]2)cc1NC(=O)c1ccc(OCc2ccccn2)cc1 [Example 82, N-{2-methyl-5-[4-(1,3-thiazol-2-yl)-1H-imidazol-2-yl]phenyl}-4-(pyridin-2-ylmethoxy)benzamide]
Second: Cc1ccc(-c2nc(-c3cccnc3)c[nH]2)cc1NC(=O)c1ccc(OCc2ccccn2)cc1 [Example 84, N-[2-methyl-5-(4-pyridin-3-yl-1H-imidazol-2-yl)phenyl]-4-(pyridin-2-ylmethoxy)benzamide]
The inhibition at 3 µM of the first is lower: 68.6% for the first, 79.6% for the second.

First: Cc1ccc(-c2nc(-c3ccc(N4CCCC4)cc3)c[nH]2)cc1NC(=O)c1ccc(OCc2ccccn2)cc1 [Example 83, N-{2-methyl-5-[4-(4-pyrrolidin-1-ylphenyl)-1H-imidazol-2-yl]phenyl}-4-(pyridin-2-ylmethoxy)benzamide]
Second: Cc1ccc(-c2nc(C3CC3)c[nH]2)cc1NC(=O)c1ccc(OCc2ccccn2)cc1 [Example 87, N-[5-(4-cyclopropyl-1H-imidazol-2-yl)-2-methylphenyl]-4-(pyridin-2-ylmethoxy)benzamide]
The inhibition at 3 µM of the first is lower: 15.1% for the first, 74.8% for the second.

Going from `CCc1c[nH]c(-c2ccc(C)c(NC(=O)c3ccc(OCc4ccccn4)cc3)c2)n1` [Example 85, N-[5-(4-ethyl-1H-imidazol-2-yl)-2-methylphenyl]-4-(pyridin-2-ylmethoxy)benzamide] to `Cc1ccc(-c2nc(C(C)(C)C)c[nH]2)cc1NC(=O)c1ccc(OCc2ccccn2)cc1` [Example 86, N-[5-(4-tert-butyl-1H-imidazol-2-yl)-2-methylphenyl]-4-(pyridin-2-ylmethoxy)benzamide], the inhibition at 3 µM rises from 78.8% to 85.7%.

First: Cc1ccc(-c2ncc[nH]2)cc1NC(=O)c1ccc(OCc2cc(N3CCN(CCO)CC3)ccn2)cc1 [Example 90, 4-({4-[4-(2-hydroxyethyl)piperazin-1-yl]pyridin-2-yl}methoxy)-N-[5-(1H-imidazol-2-yl)-2-methylphenyl]benzamide]
Second: Cc1ccc(-c2nccn2C)cc1NC(=O)c1ccc(OCc2cc(Cl)ccn2)cc1 [Example 91, 4-[(4-chloropyridin-2-yl)methoxy]-N-[2-methyl-5-(1-methyl-1H-imidazol-2-yl)phenyl]benzamide]
The inhibition at 3 µM of the first is lower: 61.5% for the first, 80.4% for the second.

`COc1ccnc(COc2ccc(C(=O)Nc3cc(-c4nccn4C)ccc3C)cc2)c1` [Example 93, 4-[(4-methoxypyridin-2-yl)methoxy]-N-[2-methyl-5-(1-methyl-1H-imidazol-2-yl)phenyl]benzamide] gave an inhibition at 3 µM of 79.9%.
